Experimental data taken from patent EP2061765B1, “Serine-threonine protein kinase and PARP modulators” (Senhwa Biosciences, Inc., priority 2006, dated 2008).

test system: HCT-116; assay: Cell proliferation assay (Alamar Blue); assay type: cell-based; conditions: Homo sapiens, 96 h, HCT-116 cells, four days;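 also: fluorescence of unreduced Alamar Blue read roughly 4 h after dye addition, with wells given medium instead of compound serving as controls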

SMILES | IC50 [µM]
O=C(O)c1ccc2c(c1)nc(Nc1ccc(F)c(Cl)c1)c1nc(NCc3cccnc3)ncc12 [drawing 367] | > 10
O=C(O)c1ccc2c(c1)nc(Nc1ccc(F)c(Cl)c1)c1nc(NCc3ccncc3)ncc12 [drawing 368] | > 10
O=C(O)c1ccc2c(c1)nc(Nc1ccccc1)c1nc(Nc3ccccc3)ncc12 [drawing 369] | > 10
CCOC(=O)CCNC(=O)c1ccc2c(c1)nc(Nc1cccc(C(F)(F)F)c1)c1nc(NC3CC3)ncc12 [drawing 371] | > 10

test system: BxPC3; assay: Cell proliferation assay (Alamar Blue); assay type: cell-based; conditions: Homo sapiens, BXPC-3, 96 h, BxPC3 cells, four days
Procedure: (§1) A representative cell-proliferation assay protocol using Alamar Blue dye (stored at 4°C, use 20ul per well) is described hereafter. 96-well plate setup and compound treatment • a. Split and trypsinize cells. • b. Count cells using hemocytometer. • c. Plate 4,000-5,000 cells per well in 100 µl of medium and seed into a 96-well plate according to the following plate layout. Add cell culture medium only to wells B10 to B12. Wells B1 to B9 have cells but no compound added. [formula] [formula] • d. Add 100 µl of 2X drug dilution to each well in a concentration shown in the plate layout above. At the same time, add 100 µl of media into the control wells (wells B10 to B12). Total volume is 200 µl/well. • e. Incubate four (4) days at 37°C, 5% CO2 in a humidified incubator. • f. Add 20µl Alamar Blue reagent to each well. • g. Incubate for four (4) hours at 37°C, 5% CO2 in a humidified incubator. • h. Record fluorescence at an excitation wavelength of 544nm and emission wavelength of 590nm using a microplate reader.
(§2) In the assays, cells are cultured with a test compound for approximately four days, the dye then is added to the cells and fluorescence of […] dye is detected after approximately four hours. Different types of cells can be utilized in the assays (e.g., HCT-116 human colorectal carcinoma cells, PC-3 human prostatic cancer cells and MiaPaca human pancreatic carcinoma cells). Anti-proliferative effects of representative compounds are provided hereafter.

SMILES | IC50 [µM]
O=C(O)c1ccc2c(c1)nc(Nc1ccc(F)c(Cl)c1)c1ncncc12 [drawing 445] | 3.55
O=C(O)c1ccc2c(c1)nc(Nc1ccccc1)c1nc(NC3CC3)ncc12 [drawing 461] | 2.16
CCCNc1ncc2c(n1)c(Nc1ccccc1)nc1cc(C(=O)O)ccc12 [drawing 462] | 5.83
COCCNc1ncc2c(n1)c(Nc1ccccc1)nc1cc(C(=O)O)ccc12 [drawing 463] | 3.92
O=C(O)c1ccc2c(c1)nc(Nc1ccccc1)c1nc(NCCO)ncc12 [drawing 464] | 23.5
O=C(O)c1ccc2c(c1)nc(Nc1ccc(F)c(Cl)c1)c1nc(NCc3ccncc3)ncc12 [drawing 511] | 7.33

test system: Jurkat; assay: Cell proliferation assay (Alamar Blue); assay type: cell-based; conditions: Homo sapiens, 96 h, Jurkat cells, four days
Procedure: as §1, §2

SMILES | IC50 [µM]
O=C(O)c1ccc2c(c1)nc(Nc1ccc(F)c(Cl)c1)c1nc(NCc3cccnc3)ncc12 [drawing 367] | 1.5
O=C(O)c1ccc2c(c1)nc(Nc1ccc(F)c(Cl)c1)c1nc(NCc3ccncc3)ncc12 [drawing 368] | 5.11
O=C(O)c1ccc2c(c1)nc(Nc1ccccc1)c1nc(Nc3ccccc3)ncc12 [drawing 369] | 8.98
CCOC(=O)CCNC(=O)c1ccc2c(c1)nc(Nc1cccc(C(F)(F)F)c1)c1nc(NC3CC3)ncc12 [drawing 371] | 3.75

test system: MDAMB231; assay: Cell proliferation assay (Alamar Blue); assay type: cell-based; conditions: Homo sapiens, MDA-MB-231, 96 h, MDAMB231 cells, four days
Procedure: as §1, §2

SMILES | IC50 [µM]
O=C(O)c1ccc2c(c1)nc(Nc1ccc(F)c(Cl)c1)c1ncncc12 [drawing 374] | 1.11
O=C(O)c1ccc2c(c1)nc(Nc1ccccc1)c1nc(NC3CC3)ncc12 [drawing 389] | 0.73
CCCNc1ncc2c(n1)c(Nc1ccccc1)nc1cc(C(=O)O)ccc12 [drawing 390] | 18.2
COCCNc1ncc2c(n1)c(Nc1ccccc1)nc1cc(C(=O)O)ccc12 [drawing 391] | 24.4
O=C(O)c1ccc2c(c1)nc(Nc1ccccc1)c1nc(NCCO)ncc12 [drawing 392] | > 50
O=C(O)c1ccc2c(c1)nc(Nc1ccccc1)c1nc(NCCCO)ncc12 [drawing 393] | 48.2
O=C(O)c1ccc2c(c1)nc(Nc1ccccc1)c1nc(NC3CCNCC3)ncc12 [drawing 394] | > 50
CCN(CC)CCNc1ncc2c(n1)c(Nc1ccccc1)nc1cc(C(=O)O)ccc12 [drawing 395] | 10.5
O=C(O)c1ccc2c(c1)nc(Nc1ccccc1)c1nc(NCCN3CCOCC3)ncc12 [drawing 396] | 2.44
O=C(O)c1ccc2c(c1)nc(Nc1ccccc1)c1nc(NCCCN3CCOCC3)ncc12 [drawing 397] | > 50
C#Cc1cccc(Nc2nc3cc(C(=O)O)ccc3c3cnc(NC4CC4)nc23)c1 [drawing 398] | 4.9
C#Cc1cccc(Nc2nc3cc(C(=O)O)ccc3c3cnc(NCCC)nc23)c1 [drawing 399] | 10.4
C#Cc1cccc(Nc2nc3cc(C(=O)O)ccc3c3cnc(NCCOC)nc23)c1 [drawing 400] | 4.74
C#Cc1cccc(Nc2nc3cc(C(=O)O)ccc3c3cnc(NC4CCNCC4)nc23)c1 [drawing 401] | > 50
C#Cc1cccc(Nc2nc3cc(C(=O)O)ccc3c3cnc(NCCCN4CCOCC4)nc23)c1 [drawing 402] | 12.5
C#Cc1cccc(Nc2nc3cc(C(=O)O)ccc3c3cnc(NC)nc23)c1 [drawing 403] | 5.21
O=C(O)c1ccc2c(c1)nc(Nc1ccc(Cl)c(C(F)(F)F)c1)c1ccncc12 [drawing 404] | 4.43
O=C(O)c1ccc2c(c1)nc(Nc1cccc(Cl)c1)c1nc(NC3CC3)ncc12 [drawing 405] | 3.93
O=C(O)c1ccc2c(c1)nc(Nc1cccc(C(F)(F)F)c1)c1ncncc12 [drawing 406] | 2.93
CCOc1ncc2c(n1)c(Nc1cccc(C(F)(F)F)c1)nc1cc(C(=O)O)ccc12 [drawing 407] | 26.5
CNc1ncc2c(n1)c(Nc1cccc(Cl)c1)nc1cc(C(=O)O)ccc12 [drawing 408] | 8.28
CN(C)c1ncc2c(n1)c(Nc1cccc(Cl)c1)nc1cc(C(=O)O)ccc12 [drawing 409] | 9.82
Nc1ncc2c(n1)c(Nc1cccc(Cl)c1)nc1cc(C(=O)O)ccc12 [drawing 410] | 4.12
CC(C)Nc1ncc2c(n1)c(Nc1cccc(Cl)c1)nc1cc(C(=O)O)ccc12 [drawing 411] | 20.8
O=C(O)c1ccc2c(c1)nc(Nc1cccc(C(F)(F)F)c1)c1nc(NC3CC3)ncc12 [drawing 412] | 9.19
CCNc1ncc2c(n1)c(Nc1cccc(Cl)c1)nc1cc(C(=O)O)ccc12 [drawing 413] | 6.87
CNc1ncc2c(n1)c(Nc1ccc(F)c(Cl)c1)nc1cc(C(=O)O)ccc12 [drawing 414] | 15.8
Nc1ncc2c(n1)c(Nc1ccc(F)c(Cl)c1)nc1cc(C(=O)O)ccc12 [drawing 415] | 6.53

SMILES | IC50 [µM]
O=C(O)c1ccc2c(c1)nc(Nc1ccc(F)c(Cl)c1)c1nc(NC3CC3)ncc12 [drawing 416] | 7.12
COCCNc1ncc2c(n1)c(Nc1ccc(F)c(Cl)c1)nc1cc(C(=O)O)ccc12 [drawing 417] | 12.6
C#Cc1cccc(Nc2nc3cc(C(=O)O)ccc3c3cnc(NCCOCC)nc23)c1 [drawing 418] | 31.6
C#Cc1cccc(Nc2nc3cc(C(=O)O)ccc3c3cnc(NCCCOCC)nc23)c1 [drawing 419] | 5.22
C#Cc1cccc(Nc2nc3cc(C(=O)O)ccc3c3cnc(NCCCOC(C)C)nc23)c1 [drawing 420] | 7.05
O=C(O)c1ccc2c(c1)nc(Nc1cccc(Cl)c1)c1nc(O)ncc12 [drawing 421] | > 50
Cc1ncc2c(n1)c(Nc1cccc(Cl)c1)nc1cc(C(=O)O)ccc12 [drawing 422] | 5.48
C#Cc1cccc(Nc2nc3cc(C(=O)OC)ccc3c3cnc(NOC)nc23)c1 [drawing 423] | > 50
COC(=O)c1ccc2c(c1)nc(Nc1cccc(Cl)c1)c1nc(NCCC(N)=O)ncc12 [drawing 424] | 27.2
NC(=O)CCNc1ncc2c(n1)c(Nc1cccc(Cl)c1)nc1cc(C(=O)O)ccc12 [drawing 425] | > 50
O=C(O)CCNc1ncc2c(n1)c(Nc1cccc(Cl)c1)nc1cc(C(=O)O)ccc12 [drawing 426] | > 50
Cc1cccc(Nc2nc3cc(C(=O)O)ccc3c3cnccc23)c1 [drawing 427] | 17.5
O=C(O)c1ccc2c(c1)nc(Nc1cccc(C(F)(F)F)c1)c1ccncc12 [drawing 428] | 13
O=C(O)c1ccc2c(c1)nc(Nc1cc(F)cc(F)c1)c1nc(NC3CC3)ncc12 [drawing 429] | 23
O=C(O)c1ccc2c(c1)nc(Nc1cccc(F)c1)c1nc(NC3CC3)ncc12 [drawing 430] | 12.8
COc1cccc(Nc2nc3cc(C(=O)O)ccc3c3cnc(NC4CC4)nc23)c1 [drawing 431] | 20.1
CN(C)CCNc1ncc2c(n1)c(Nc1ccc(F)c(Cl)c1)nc1cc(C(=O)O)ccc12 [drawing 432] | > 50
O=C(O)c1ccc2c(c1)nc(Nc1ccc(F)c(Cl)c1)c1nc(NCc3ccccn3)ncc12 [drawing 433] | 33.7
COC(CNc1ncc2c(n1)c(Nc1ccc(F)c(Cl)c1)nc1cc(C(=O)O)ccc12)OC [drawing 434] | 25.4
NC(=O)c1ccc2c(c1)nc(Nc1cccc(C(F)(F)F)c1)c1nc(NC3CC3)ncc12 [drawing 435] | > 50
O=C(NC1CC1)c1ccc2c(c1)nc(Nc1cccc(C(F)(F)F)c1)c1nc(NC3CC3)ncc12 [drawing 436] | 39.8
CNC(=O)c1ccc2c(c1)nc(Nc1cccc(C(F)(F)F)c1)c1nc(NC3CC3)ncc12 [drawing 437] | 10.5
O=C(O)c1ccc2c(c1)nc(Nc1ccc(F)c(Cl)c1)c1nc(NCc3cccnc3)ncc12 [drawing 438] | 5.48
O=C(O)c1ccc2c(c1)nc(Nc1ccc(F)c(Cl)c1)c1nc(NCc3ccncc3)ncc12 [drawing 439] | 12.1
O=C(O)c1ccc2c(c1)nc(Nc1ccccc1)c1nc(Nc3ccccc3)ncc12 [drawing 440] | 19.2
CC(C)OC(=O)Nc1ccc2c(c1)nc(Nc1cccc(C(F)(F)F)c1)c1nc(NC3CC3)ncc12 [drawing 441] | 4.27
CCOC(=O)CCNC(=O)c1ccc2c(c1)nc(Nc1cccc(C(F)(F)F)c1)c1nc(NC3CC3)ncc12 [drawing 442] | 2.52

test system: MiaPaCa; assay: Cell proliferation assay (Alamar Blue); assay type: cell-based; conditions: Homo sapiens, MIA PaCa-2, 96 h, MiaPaCa cells, four days
Procedure: as §1, §2

SMILES | IC50 [µM]
O=C(O)c1ccc2c(c1)nc(Nc1ccc(F)c(Cl)c1)c1nc(NCc3cccnc3)ncc12 [drawing 367] | 1.97
O=C(O)c1ccc2c(c1)nc(Nc1ccc(F)c(Cl)c1)c1nc(NCc3ccncc3)ncc12 [drawing 368] | 4.5
O=C(O)c1ccc2c(c1)nc(Nc1ccccc1)c1nc(Nc3ccccc3)ncc12 [drawing 369] | 5.12
CCOC(=O)CCNC(=O)c1ccc2c(c1)nc(Nc1cccc(C(F)(F)F)c1)c1nc(NC3CC3)ncc12 [drawing 371] | 0.33

test system: PanC1; assay: Cell proliferation assay (Alamar Blue); assay type: cell-based; conditions: Homo sapiens, PANC-1, 96 h, PanC1 cells, four days
Procedure: as §1, §2

SMILES | IC50 [µM]
O=C(O)c1ccc2c(c1)nc(Nc1ccc(F)c(Cl)c1)c1ncncc12 [drawing 445] | 3.37
Fc1cccc(Nc2nc3cc(-c4nnn[nH]4)ccc3c3cnccc23)c1 [drawing 453] | > 50
Fc1cc(Nc2nc3cc(-c4nnn[nH]4)ccc3c3cnccc23)ccc1Cl [drawing 454] | > 50
Clc1cccc(Nc2nc3cc(-c4nnn[nH]4)ccc3c3cnccc23)c1 [drawing 458] | > 50
O=C(O)c1ccc2c(c1)nc(Nc1ccccc1)c1nc(NC3CC3)ncc12 [drawing 461] | 5.02
CCCNc1ncc2c(n1)c(Nc1ccccc1)nc1cc(C(=O)O)ccc12 [drawing 462] | 4.28
COCCNc1ncc2c(n1)c(Nc1ccccc1)nc1cc(C(=O)O)ccc12 [drawing 463] | 32.6
O=C(O)c1ccc2c(c1)nc(Nc1ccccc1)c1nc(NCCO)ncc12 [drawing 464] | > 50
